Laboratory results: patent publication US4214093A, “Amino- or guanidino-1,2,3,4-tetrahydro-1-naphthoic esters” (Torii & Co., Ltd., priority 1977, dated 1980)
Like-named read-outs stand apart in the source and are kept apart here.

Experiments:
[1] = test system: clotting activity of thrombin; assay: Inhibitory activity on plasma clotting (rabbit platelet poor plasma, thrombin-induced); format: biochemical
Experimental: Blood was drawn from carotid artery of an ether anesthetized rabbit with 1/10 volume of 3.8% sodium citrate. Platelet poor plasma (PPP) was prepared from citrated blood which was centrifuged at 3,000 r.p.m. for 15 minutes at 4° C. PPP, 0.9 ml, was taken into cell, 10μ of a compound solution was added and incubated at 37° C. for 10 minutes. […] Compounds were dissolved in distilled water or 50% dimethyl sulfoxide (0.5% final concentration).

thrombin = assay: Inhibitory activity on thrombus formation: protection from lethal thrombin injection in mice; format: in vivo, mice (ddY strain); settings: 10 minutes before thrombin 300 NIH units/kg i.v., No. 91 in 2.5% gum arabic
Experimental: White male mice (ddY strain), 4 weeks age and weighing 18-27 g, were used throughout the experiments. […] The intravenous injection of 300 NIH units/kg of thrombin over 30 seconds into mice was lethal to all animals. The compounds were intraperitoneally administered in doses of 1, 10, and 100 mg/kg in saline unless otherwise described.
Compounds were intraperitoneally administered 10 minutes before thrombin injection. Compound No. 91 was dissolved in 2.5% gum arabic.

Human Cl Esterase = molecular target: T1, Human Cl Esterase (Homo sapiens, UniProt P09871); assay: Inhibitory effect on ester-hydrolyzing activity of human Cl esterase (ATEe substrate); format: biochemical; settings: for IC50: in vitro, ATEe, pH 7.4, Table 4 bracketed value, read-out: Cl-esterase ID50
T1 sequence (P09871 438-688 limits assumed): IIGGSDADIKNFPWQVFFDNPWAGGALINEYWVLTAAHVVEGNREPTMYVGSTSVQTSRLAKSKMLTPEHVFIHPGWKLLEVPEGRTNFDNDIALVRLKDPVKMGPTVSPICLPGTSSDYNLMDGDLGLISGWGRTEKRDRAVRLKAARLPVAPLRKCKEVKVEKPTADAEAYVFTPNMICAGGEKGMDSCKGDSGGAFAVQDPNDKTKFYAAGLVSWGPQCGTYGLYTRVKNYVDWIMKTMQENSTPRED
T1 sequence (P09871 16-437 partner limits assumed): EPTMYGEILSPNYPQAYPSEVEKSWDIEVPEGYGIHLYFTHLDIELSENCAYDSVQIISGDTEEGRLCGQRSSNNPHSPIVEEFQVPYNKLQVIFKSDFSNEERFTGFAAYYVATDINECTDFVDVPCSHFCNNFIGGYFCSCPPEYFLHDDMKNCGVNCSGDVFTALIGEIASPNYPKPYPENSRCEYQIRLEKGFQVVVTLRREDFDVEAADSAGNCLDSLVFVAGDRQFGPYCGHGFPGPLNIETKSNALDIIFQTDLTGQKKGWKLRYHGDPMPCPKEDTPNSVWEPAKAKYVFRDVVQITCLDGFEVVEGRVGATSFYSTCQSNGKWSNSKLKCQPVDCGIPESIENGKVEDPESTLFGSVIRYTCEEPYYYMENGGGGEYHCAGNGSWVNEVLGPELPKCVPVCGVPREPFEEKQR
Experimental: It was measured by using 0.1 ml of Cl esterase, 0.1 ml of 0.02 M sodium phosphate buffer solution (pH 7.4 ) and 10 μmoles of ATEe (acetyltyrosine ethyl ester) as substrate following the method described in (1).

[2] = Acute toxicity (LD50) by intraperitoneal administration in mice; settings: mouse, in vivo, ip
Human Plasmin = Human Plasmin (Homo sapiens, UniProt P00747); assay: Inhibitory effect on ester-hydrolyzing activity of human plasmin (TAMe substrate); format: biochemical; settings: for IC50: Table 4 bracketed value, read-out: Plasmin ID50; for inhibition at 1000 µM: read-out: Plasmin percent inhibition
Sequence of Human Plasmin (P00747 581-810 limits assumed): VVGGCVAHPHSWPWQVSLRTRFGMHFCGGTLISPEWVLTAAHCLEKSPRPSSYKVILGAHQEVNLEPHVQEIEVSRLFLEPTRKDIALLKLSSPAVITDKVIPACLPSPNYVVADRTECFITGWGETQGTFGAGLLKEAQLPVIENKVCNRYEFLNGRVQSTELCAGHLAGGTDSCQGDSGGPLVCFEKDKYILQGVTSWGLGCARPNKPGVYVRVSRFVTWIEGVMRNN
Sequence of Human Plasmin (P00747 97-580 partner limits assumed): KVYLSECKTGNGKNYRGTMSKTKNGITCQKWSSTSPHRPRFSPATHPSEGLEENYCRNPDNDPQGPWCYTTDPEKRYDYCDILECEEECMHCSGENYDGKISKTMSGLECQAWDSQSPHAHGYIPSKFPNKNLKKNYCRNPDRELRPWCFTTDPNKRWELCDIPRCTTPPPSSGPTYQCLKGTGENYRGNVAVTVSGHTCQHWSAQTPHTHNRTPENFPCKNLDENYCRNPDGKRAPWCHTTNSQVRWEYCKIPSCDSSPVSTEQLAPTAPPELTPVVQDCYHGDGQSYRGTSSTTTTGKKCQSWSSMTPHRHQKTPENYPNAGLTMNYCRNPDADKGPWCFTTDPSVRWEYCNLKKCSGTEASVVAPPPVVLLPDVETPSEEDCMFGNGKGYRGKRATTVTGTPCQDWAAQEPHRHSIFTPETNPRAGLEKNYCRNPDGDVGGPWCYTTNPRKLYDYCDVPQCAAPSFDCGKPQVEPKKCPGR
Experimental: The enzyme-inhibitory activities in vitro of the compounds of this invention were measured by the following procedure according to the method of M. Muramatsu et al. [[…]. […] After the incubation, 1.5 ml of 2 M alkaline hydroxylamine was added and thoroughly mixed, and allowed to stand at room temperature for 15 minutes. […] It was measured by using 0.1 ml of plasmin (generated by activation of plasminogen with streptokinase) and TAMe as substrate following the method described in (1).

Bovine Thrombin = Bovine Thrombin (Bos taurus, UniProt P00735); assay: Inhibitory effect on ester-hydrolyzing activity of bovine thrombin (TAMe substrate); format: biochemical
Experimental: The enzyme-inhibitory activities in vitro of the compounds of this invention were measured by the following procedure according to the method of M. Muramatsu et al. [M. Muramatsu, T. Onishi, S. Makino, Y. Hayashi and S. Fujii: J. Biochem., 58, 214 (1965)]
To 0.1 ml of trypsin (5 μg/ml) were added 0.5 ml of 0.1 M borate buffer solution (pH 8.6) containing 10 mM CaCl2, and 0.1 ml of a varying concentration of an inhibitor solution, and preincubation was carried out at 37° C. for 5 minutes. Then, 10 μmoles of the substrate, TAMe (tosylarginine methyl ester), was added, and incubation was preformed at 37° C. for 30 minutes.
After the incubation, 1.5 ml of 2 M alkaline hydroxylamine was added and thoroughly mixed, and allowed to stand at room temperature for 15 minutes. Then, 1.0 ml of each of 18% trichloroacetic acid, 4 N HCl and 10% FeCl3 was added and thoroughly mixed. If necessary, the mixture was centrifuged at 3,000 rpm for 10 minutes, and the absorbance of the supernatant was measured at 530 nm.
It was measured by using 0.4 ml of bovine thrombin […], 0.02 M sodium phosphate buffer solution (pH 7.4) and TAMe as substrate following the method described in (1).

Human Plasma Kallikrein = Human Plasma Kallikrein (Homo sapiens, UniProt P03952); assay: Inhibitory effect on ester-hydrolyzing activity of human plasma kallikrein (TAMe substrate); format: biochemical; settings: for IC50: Table 4 bracketed value, read-out: Kallikrein ID50
Sequence of Human Plasma Kallikrein (P03952 391-638 limits assumed): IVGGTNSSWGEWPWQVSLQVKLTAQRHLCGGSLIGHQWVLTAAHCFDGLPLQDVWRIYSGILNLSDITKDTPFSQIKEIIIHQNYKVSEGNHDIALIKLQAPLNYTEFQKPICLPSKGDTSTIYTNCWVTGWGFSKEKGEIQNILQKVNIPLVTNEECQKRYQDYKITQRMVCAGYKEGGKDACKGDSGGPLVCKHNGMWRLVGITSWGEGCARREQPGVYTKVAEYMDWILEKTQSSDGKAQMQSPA
Sequence of Human Plasma Kallikrein (P03952 20-390 partner limits assumed): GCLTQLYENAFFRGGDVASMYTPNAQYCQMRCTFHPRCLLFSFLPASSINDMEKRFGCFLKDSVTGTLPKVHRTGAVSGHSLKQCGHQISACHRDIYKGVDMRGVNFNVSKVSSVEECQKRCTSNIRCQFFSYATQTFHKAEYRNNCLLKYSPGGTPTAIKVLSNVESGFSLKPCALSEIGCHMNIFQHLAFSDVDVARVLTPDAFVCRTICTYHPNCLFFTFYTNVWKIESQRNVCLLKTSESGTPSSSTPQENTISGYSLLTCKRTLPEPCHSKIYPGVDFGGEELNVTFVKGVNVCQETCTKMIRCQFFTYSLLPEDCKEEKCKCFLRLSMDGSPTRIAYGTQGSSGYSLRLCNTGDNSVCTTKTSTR
Experimental: (§1) The enzyme-inhibitory activities in vitro of the compounds of this invention were measured by the following procedure according to the method of M. Muramatsu et al. [[…]. […] After the incubation, 1.5 ml of 2 M alkaline hydroxylamine was added and thoroughly mixed, and allowed to stand at room temperature for 15 minutes.

Trypsin = molecular target: T2, Trypsin (Bos taurus, UniProt P00760); assay: Inhibitory effect on ester-hydrolyzing activity of trypsin (TAMe substrate); format: biochemical; settings: for IC50: pH 8.6, 37° C., Table 4 bracketed value, read-out: Trypsin ID50; for inhibition at 1000 µM: read-out: Trypsin percent inhibition
T2 sequence (P00760 24-246): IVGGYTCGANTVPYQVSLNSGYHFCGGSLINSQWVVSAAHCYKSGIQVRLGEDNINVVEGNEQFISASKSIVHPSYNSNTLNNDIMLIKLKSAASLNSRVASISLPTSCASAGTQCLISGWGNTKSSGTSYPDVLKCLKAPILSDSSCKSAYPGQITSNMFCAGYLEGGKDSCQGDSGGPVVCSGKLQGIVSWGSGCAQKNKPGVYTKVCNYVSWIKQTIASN
Experimental: as §1

Structure (SMILES) | Percent inhibition of clotting activity ([1]; 3 × 10^-4 M, DMSO control) | Percent inhibition of clotting activity ([1]; 3 × 10^-5 M, DMSO control) | Percent inhibition of clotting activity ([1]; 10^-3 M, DMSO control) | Percent inhibition of clotting activity ([1]; 10^-4 M, DMSO control) | Percent inhibition of clotting activity ([1]; 10^-5 M, DMSO control) | % protective (thrombin; 1 mg/kg i.p.) | Survived / Tested (thrombin; 1 mg/kg i.p.) | % protective (thrombin; 10 mg/kg i.p.) | Survived / Tested (thrombin; 10 mg/kg i.p.) | % protective (thrombin; 100 mg/kg i.p.) | Survived / Tested (thrombin; 100 mg/kg i.p.) | Percent inhibition of clotting activity ([1]; 3 × 10^-5 M, H2O control) | Percent inhibition of clotting activity ([1]; 10^-4 M, H2O control) | Percent inhibition of clotting activity ([1]; 10^-5 M, H2O control) | IC50 (Human Cl Esterase) | LD50 [2] | IC50 (Human Plasmin; in vitro, TAMe) | IC50 (Bovine Thrombin) | IC50 (Human Plasma Kallikrein; in vitro, TAMe) | IC50 (Trypsin; in vitro, TAMe) | further results
N=C(N)c1ccc(CC(=O)C(=O)O)cc1 [APPA-Na, sodium p-amidinophenyl pyruvate, reference compound] | 86.5% | -9.5% | 100.0% | 44.2% | -11.7% | 0% | 0/9 | 33% | 3/9 | 46% | 5/11 |  |  |  |  |  |  |  |  |  | 
CCOC(=O)c1ccc(OC(=O)C2CCCc3ccc(NC(=N)N)cc32)cc1 (centres unmarked) [Compound 148] |  |  |  |  |  | 0% | 0/10 | 30% | 3/10 | 90% | 9/10 | 20.0% | 6.7% | -2.2% | 260 µM | 92 mg/kg | 140 µM | 6 µM | 170 µM | 150 µM | Percent inhibition of clotting activity ([1]; 3 × 10^-4 M, H2O control): 55.6%; Percent inhibition of clotting activity ([1]; 10^-3 M, H2O control): 100%
N=C(N)Nc1ccc2c(c1)C(C(=O)Oc1ccc(Cl)cc1)CCC2 (centres unmarked) [Compound 137] |  |  |  |  |  |  |  |  |  |  |  | 10.0% | 2.0% | -5.0% | 250 µM |  | 1000 µM | 45 µM | 120 µM | 78 µM | 
N=C(N)Nc1cccc2c1CCCC2C(=O)Oc1ccc(Cl)cc1 (centres unmarked) [Compound 111] |  |  |  |  |  |  |  |  |  |  |  |  |  |  | 680 µM | 333 mg/kg |  |  |  |  | inhibition at 1000 µM (Human Plasmin; at 10^-3 M, in vitro, TAMe): < 3.2%; inhibition at 1000 µM (Bovine Thrombin; at 10^-3 M, in vitro, TAMe, read-out: Thrombin percent inhibition): 18.6%; inhibition at 1000 µM (Human Plasma Kallikrein; at 10^-3 M, in vitro, TAMe, read-out: Kallikrein percent inhibition): < 3.2%; inhibition at 1000 µM (Trypsin; at 10^-3 M, in vitro, TAMe): 19%
CCCCOc1ccc(OC(=O)C2CCCc3ccc(NC(=N)N)cc32)cc1 (centres unmarked) [Compound 142] | 13.0% | -3.0% | 61.0% | 0.0% | -5.0% |  |  |  |  |  |  |  |  |  | 460 µM |  | 360 µM | 24 µM | 76 µM |  | inhibition at 1000 µM (Trypsin): 36.9%
COC(=O)c1ccc(OC(=O)C2CCCc3ccc(NC(=N)N)cc32)cc1 (centres unmarked) [Compound 144] | 57.3% | 1.7% | 98.1% | 58.0% | -3.6% |  |  |  |  |  |  |  |  |  | 310 µM | 192 mg/kg | 45 µM | 19 µM |  | 14 µM | 
Cl.N=C(N)Nc1ccc2c(c1)C(C(=O)Oc1ccccc1)CCC2 (centres unmarked) [Compound 134, phenyl 7-guanidino-1,2,3,4-tetrahydro-1-naphthoate hydrochloride] |  |  |  |  |  | 0% | 0/9 | 10% | 1/10 | 70% | 7/10 | 11.1% | 42.2% | 13.3% | 370 µM |  |  | 27 µM | 290 µM |  | Percent inhibition of clotting activity ([1]; 3 × 10^-4 M, H2O control): 97.8%; Percent inhibition of clotting activity ([1]; 10^-3 M, H2O control): 100%; inhibitory activity on Cl-esterase (Human Cl Esterase; text of Examples): had an inhibitory activity; inhibition at 1000 µM (Human Plasmin): < 3.2%; inhibitory activity on plasmin (Human Plasmin; text of Examples): no activity at all; inhibitory activity on kallikrein (Human Plasma Kallikrein; text of Examples): had an inhibitory activity; inhibition at 1000 µM (Trypsin): 40.6%
COC(=O)c1ccc(OC(=O)C2CCCc3c(NC(=N)N)cccc32)cc1 (centres unmarked) [Compound 118] |  |  |  |  |  | 20% | 2/10 | 30% | 3/10 | 40% | 4/10 |  |  |  | 780 µM | 192 mg/kg | 1000 µM | 80 µM |  | 1000 µM | 
